US9370189B2, “Controlling Pseudomonas aeruginosa persister cells with GM-CSF” (priority 2012, dated 2016)

What was measured:
biofilm cells of PDO300 = experiment: Synergistic effects of GM-CSF, tobramycin and alginate lyase on biofilm cells of PDO300; format: cell-based, Pseudomonas aeruginosa; conditions: 2.43 pg/mL GM-CSF with 200 μg/mL tobramycin, 3.5 h
Description: This Example describes an experiment, similar to the one described in Example 5 with respect to the planktonic cells of PDO300, which was performed on the biofilm cells of PDO300.
In brief, after preparing an overnight culture, it was subcultured to an OD600 of 0.01 in a total volume of 20 mL M63 medium with 316L stainless steel coupons (1.75 cm×1 cm). The biofilm was grown for 24 h at 37° C. After incubation, the coupons were washed by gently dipping in 0.85% NaCl buffer twice using tweezers and then placed in new empty petri dishes.
To test the synergistic effects of GM-CSF (2.43 pg/mL), tobramycin (200 μg/mL) and alginate lyase (0.5 mg/mL), a total of 8 coupons were included. These 8 coupons were placed in 8 microcentrifuge tubes with 2 mL of 0.85% NaCl buffer. There were 4 treatments samples, with 2 coupons for each treatment (i) Control (ii) […] Tobramycin (iii) 200 μg/mL Tobramycin and 2.43 pg/mL GM-CSF and (iv) 200 μg/mL Tobramycin, 2.43 pg/mL GM-CSF and 0.5 mg/mL Alginate lyase. […]
After incubation, each coupon was gently washed with 0.85% NaCl buffer and placed in a test tube with 2 mL of 0.85% NaCl buffer. […] The CFU was counted after incubation at 37° C. for 24 h to quantify the total number of viable cells. The synergistic effects of GM-CSF, tobramycin and alginate lyase were quantified based on CFU data.

[1] = test system: P. aeruginosa PAO1 biofilm; experiment: Effect of GM-CSF on 24-h PAO1 biofilm, alone and with antibiotic; format: cell-based, Pseudomonas aeruginosa
Description: This Example describes the treatment of biofilms made from P. aeruginosa PAO1, PDO300 and Escherichia coli K12, with GM-CSF introduced directly or together with an antibiotic to test the synergy.
In brief, after preparing an overnight culture, it was subcultured to an initial OD600 of 0.01 to a total volume of 20 mL M63 medium (for PAO1 and PDO300) or 20 ml LB medium (for E. coli K12) in a petri dish with 316L stainless steel coupons (1.75 cm×1 cm). The biofilm was grown for 24 h at 37° C. without shaking. After incubation, the coupons were washed by gently dipping in 0.85% NaCl twice using tweezers and were placed in new empty petri dishes.
To test the synergistic effects between GM-CSF (2.43 pg/mL or 0.17 pM) and antibiotics, a total of 8 coupons were analyzed. These 8 coupons were placed in 4 petri dishes (2 coupons in each dish). The two dishes were labeled as control and the other two as treatment samples. In the treatment samples, GM-CSF was added to 20 mL of 0.85% NaCl to a concentration of 2.43 pg/mL (or 0.17 pM). The control samples were supplemented with the same amount of PBS and BSA as present in the samples with 2.43 pg/ml (or 0.17 pM) GM-CSF. The coupons were incubated at 37° C. for 2 h.
After incubation, a control dish and a treatment dish was selected for studying the killing effect of 2.43 pg/ml GM-CSF on biofilm cells. Each coupon after gentle washing with 0.85% NaCl buffer, was placed in a test tube with 3 mL 0.85% NaCl buffer in each. They were sonicated (B200, Sinosonic Industrial Co., Ltd., Taiwan) for 4 mins to release the biofilm cells in the buffer. After vortexing for 1 min, they were plated on LB agar plates using drop plate method. The CFU was counted after incubation at 37° C. for 24 h to count the total number of viable cells. Furthermore, the synergistic effect of antibiotics with GM-CSF was evaluated with additional 3.5 h treatment with antibiotic at 37° C. After incubation, drop plate method was performed and the CFU was counted to understand if there is a synergistic effect.

whole cells of E. coli = experiment: GM-CSF binding assay to bacterial whole cells (slot blot immunoblotting); design: species or system Escherichia coli; conditions: PBS, room temperature, 2 h, anti-rhGM-CSF immunoblot (FIG. 21)
Description: This Example describes experiments conducted to determine the capability of GM-CSF to bind to whole cells of P. aeruginosa and E. coli. In brief, bacteria harvested at stationary phases of growth were washed with PBS and adjusted to OD600 of 0.4 with PBS to ensure that an equal amount of cells was used for all GF-CSF binding tests. Suspensions of bacteria (10^6 CFU) were then incubated with and without different amount of recombinant human GM-CSF (rhGM-CSF, R&D systems) in a 40 μL volume at room temperature for 2 hours. After incubation, the cell suspension was centrifuged to separate supernatant (comprising buffer and unbound GM-CSF) and pellet (comprising cell and bound GM-CSF, if any), followed by the addition of 10 mM EDTA and boiling for 30 minutes to inactivate bacterial alkaline phosphatase activity. As control, PBS buffer with GM-CSF were processed in the similar manner. All the samples were then applied to Slot Blot (BioRad) for immunoblotting experiments. Anti-rhGMCSF developed in mice (Human GM-CSF MAb, Mouse IgG1, R&D system) was used as first antibody; Alkaline Phosphatase conjugated with Anti-mouse IgG was used to detect the binding of GM-CSF with BCIP/NBT (Promega) as substrates.

Substance: GM-CSF: granulocyte macrophage-colony stimulating factor, a cytokine secreted by macrophages; recombinant human GM-CSF (R&D systems) in binding tests
- additional killing of biofilm cells compared to the 200 μg/mL tobramycin treatment alone (biofilm cells of PDO300): −24.7±5.3%
- % change in avg. CFU/ml after adding factor + CIP ([1]; 24-h PAO1 biofilm, 2.43 pg/mL GM-CSF with 200 μg/mL ciprofloxacin): −23.8%
- % change in avg. CFU/ml after adding factor + TET ([1]; 24-h PAO1 biofilm, 2.43 pg/mL GM-CSF with 200 μg/mL tetracycline): −10.0%
- % change in avg. CFU/ml after adding factor + TOB ([1]; 24-h PAO1 biofilm, 2.43 pg/mL GM-CSF with 200 μg/mL tobramycin): −34.1%
- % change in avg. CFU/ml after adding factor + GEN ([1]; 24-h PAO1 biofilm, 2.43 pg/mL GM-CSF with 250 μg/mL gentamycin): −12.9%
- average CFU/ml of biofilm cells reduced by ([1]; reduction, PAO1 biofilm, 2.43 pg/mL GM-CSF alone, average of 2 experiments): 1.3%
- average CFU/mL of biofilm cells reduced by ([1]; reduction, PAO1 biofilm, 2.43 pg/mL GM-CSF in the presence of 200 μg/mL ciprofloxacin): 22.8%
- average CFU/mL of biofilm cells reduced by ([1]; reduction, PAO1 biofilm, 2.43 pg/mL GM-CSF in the presence of 200 μg/mL tetracycline): 7.5%
- average CFU/mL of biofilm cells reduced by ([1]; reduction, PAO1 biofilm, 2.43 pg/mL GM-CSF in the presence of 200 μg/mL tobramycin): 33.3%
- average CFU/mL of biofilm cells reduced by ([1]; reduction, PAO1 biofilm, 2.43 pg/mL GM-CSF in the presence of 250 μg/mL gentamicin): 10.5%
- binding to whole cells (whole cells of E. coli): not
